Assay results: patent US20210106582A1, “COMPOUNDS AND PHARMACEUTICAL COMPOSITIONS THEREOF FOR USE IN THE TREATMENT OF FIBROTIC DISEASES” (Galapagos NV, priority 2017, published 2021)
Where “and” joins values, the source holds several entries; their conditions need not be identical. Equal values may be shown once.

Test system: female C57BL/6J mice, lung fibrosis induced by radiation
Experiment: Radiation induced fibrosis mice model
Type: in vivo
Settings: individual animals, irradiated lung, CpdA 30 mg/kg QD PO D1-D14
Experimental: Pneumonitis and lung fibrosis are the major radiation-induced complications following thoracic radiotherapy, which is one of the major treatment of lung and breast cancers, lymphomas and hematopoietic transplant conditioning.
The objective of this model is to evaluate the effect of a compound of the invention in lung fibrosis induced by radiation in mice. (Bickelhaupt et al., 2017)
7 weeks old (18/22 gr) female C57BL/6J mice from Charles River (France) are maintained on 12 h light/dark cycle at 22° C. with ad libidum access to tap water and food.
The test compounds are dissolved/suspended in appropriate vehicle prior to using and then kept light-free, under agitation at room temperature.
The dose volume administered is 10 mL/kg and the volume is adapted following mean body weight (BW) of the group as follows: 200 μL if mean BW<22.5 g, 250 μL if mean BW≥22.5 g; 300 μL if mean BW>27.5 g.
On day 1 of week 1, the animals are exposed at the thorax to a 17 Gray irradiation dose, under isoflurane anesthesia. […]
Body weight are recorded once a week, and on Day 14, lung function measurement under anesthesia is realized by Flexivent (Devos et al., 2017) for all groups before sacrifice.
At sacrifice on Day 14, the lungs are collected and fixed in 4% formaldehyde for 24 h before embedding in paraffin. […] The anti-collagen I antibody is detected and amplified by ImmPress kit (Vector Laboratories, Cat. No: MP-7401). The immunostained sections are then scanned (Nanozoomer 2.0HT, Hamamatsu) before quantification by image analysis (CaloPix software, TRIBVN Healthcare). Data are expressed as percentage collagen I area per area of lung tissue.
Values for all mice from the same group are averaged. Data are expressed as mean±sem and are compared with a one-way ANOVA followed by Dunnett multiple comparison post hoc test. […]
Manganese superoxide dismutase (MnSOD), located in mitochondria, catalyzes the conversion of superoxide into H2O2, and is a marker of antioxidant response induced by oxidative stress. MnSOD expression is measured immunohistochemically following a protocol adapted from Inghilleri et al. (Inghilleri et al., 2006).
At sacrifice on Day 14, the lungs are collected and fixed in 4% formaldehyde for 24 h before embedding in paraffin. […] The anti-MnSOD antibody is detected by an anti-rabbit biotinylated antibody (Vector Laboratories, Cat. No: BA-1100) amplified by avidin-biotin peroxidase (Vector Laboratories, Cat. No: PK-6100). […] The immunostained sections counterstained with Gill's hematoxylin are then scanned (Nanozoomer 2.0HT, Hamamatsu) before quantification by image analysis (CaloPix software, TRIBVN Healthcare). Data are expressed as percentage MnSOD stained area per area of lung tissue.

O=c1nc(OC[C@@H]2COCCO2)cc2n1CCc1cc(C#CC3CC3)ccc1-2 [Compound A, 9-Cyclopropylethynyl-2-((S)-1-[1,4]dioxan-2-ylmethoxy)-6,7-dihydro-pyrimido[6,1-a]isoquinolin-4-one]
Type I collagen stained area fraction (Figure 15): 16.2% and 14.7% and 11.0% and 13.0% and 8.7% and 8.1% and 6.5% and 8.9% and 9.1% and 8.6% | MnSOD stained area fraction (Figure 16): 0.31% and 0.74% and 0.39% and 0.57% (3×) and 0.71% and 0.66% and 0.99% and 0.26%
